The text below walks through data of PubChem BioAssay AID1259407 (Chemical Carcinogenesis Research Information System (CCRIS), 2018).

The source made the active and inactive calls. The rule behind the calls is not given here.

The subject of this data set is CCRIS mutagenicity, Ames/micronucleus/aberration tests. As to the kind of experiment: CCRIS mutagenicity studies.
Setting [1] is: Test System: AMES SALMONELLA TYPHIMURIUM, Strain/Indicator: TA98, Metabolic Activation: NONE, Method: STANDARD PLATE.
The mark [2] stands for this setting: Test System: AMES SALMONELLA TYPHIMURIUM, Strain/Indicator: TA98, Metabolic Activation: NONE, Method: PREINCUBATION
Setting [3] is: Test System: AMES SALMONELLA TYPHIMURIUM, Strain/Indicator: TA100, Metabolic Activation: NONE, Method: PREINCUBATION

Take `[Pt+2].[S-]CCCCl.[S-]CCCCl`: the mutagenic call runs as follows: (Test System: AMES SALMONELLA TYPHIMURIUM, Strain/Indicator: TA92, Metabolic Activation: NONE, Method: STANDARD PLATE) “inactive; negative”; under setting [1], “inactive; negative”; (Test System: AMES SALMONELLA TYPHIMURIUM, Strain/Indicator: TA100, Metabolic Activation: NONE, Method: STANDARD PLATE) “active; positive”; (Test System: AMES SALMONELLA TYPHIMURIUM, Strain/Indicator: TA2410, Metabolic Activation: NONE, Method: STANDARD PLATE) “active; positive”.

Consider `CN(C)Nc1ccn([C@@H]2O[C@H](CO)[C@@H](O)[C@H]2O)c(=O)n1`, for which the mutagenic call (Test System: CHINESE HAMSTER V-79, Strain/Indicator: V-79/6-THIOGUANINE, Metabolic Activation: NONE, Method: REPLATING) was “inactive; negative”.

For the compound `Cn1c(N)nc2cc(O)ccc21`, the mutagenic call runs as follows: (Test System: AMES SALMONELLA TYPHIMURIUM, Strain/Indicator: TA98, Metabolic Activation: RAT, LIVER, S-9, AROCLOR 1254, Method: PREINCUBATION) “inactive; negative”; (Test System: AMES SALMONELLA TYPHIMURIUM, Strain/Indicator: TA100, Metabolic Activation: RAT, LIVER, S-9, AROCLOR 1254, Method: PREINCUBATION) “inactive; negative”.

In the case of `CCN(CC)C(=O)c1cccc(C)c1`, the mutagenic call was “inactive; negative” (End Point: In vitro chromosomal aberrations, Test System: Chinese hamster ovary (CHO-K1) cells, Metabolic Activation: None); “inactive; negative” (End Point: In vitro chromosomal aberrations, Test System: Chinese hamster ovary (CHO-K1) cells, Metabolic Activation: Rat, Liver, S-9, Aroclor 1254); “inactive; negative” (Test System: AMES SALMONELLA TYPHIMURIUM, Strain/Indicator: TA97, Metabolic Activation: HAMSTER, LIVER, S-9, AROCLOR 1254 (10%), Method: PREINCUBATION); “inactive; negative” (Test System: AMES SALMONELLA TYPHIMURIUM, Strain/Indicator: TA97, Metabolic Activation: HAMSTER, LIVER, S-9, AROCLOR 1254 (30%), Method: PREINCUBATION); “inactive; negative” (Test System: AMES SALMONELLA TYPHIMURIUM, Strain/Indicator: TA97, Metabolic Activation: NONE, Method: PREINCUBATION); “inactive; negative” (Test System: AMES SALMONELLA TYPHIMURIUM, Strain/Indicator: TA97, Metabolic Activation: RAT, LIVER, S-9, AROCLOR 1254 (10%), Method: PREINCUBATION). Also, the mutagenic call by setting is: (Test System: AMES SALMONELLA TYPHIMURIUM, Strain/Indicator: TA97, Metabolic Activation: RAT, LIVER, S-9, AROCLOR 1254 (30%), Method: PREINCUBATION) “inactive; negative”; (Test System: AMES SALMONELLA TYPHIMURIUM, Strain/Indicator: TA98, Metabolic Activation: HAMSTER, LIVER, S-9, AROCLOR 1254 (10 OR 30%), Method: PREINCUBATION) “inactive; negative”; under setting [2], “inactive; negative”; (Test System: AMES SALMONELLA TYPHIMURIUM, Strain/Indicator: TA98, Metabolic Activation: RAT, LIVER, S-9, AROCLOR 1254 (10 OR 30%), Method: PREINCUBATION) “inactive; negative”; (Test System: AMES SALMONELLA TYPHIMURIUM, Strain/Indicator: TA100, Metabolic Activation: HAMSTER, LIVER, S-9, AROCLOR 1254 (10 OR 30%), Method: PREINCUBATION) “inactive; negative”; under setting [3], “inactive; negative”. For the same compound, the mutagenic call runs as follows: (Test System: AMES SALMONELLA TYPHIMURIUM, Strain/Indicator: TA100, Metabolic Activation: RAT, LIVER, S-9, AROCLOR 1254 (10 OR 30%), Method: PREINCUBATION) “inactive; negative”; (Test System: AMES SALMONELLA TYPHIMURIUM, Strain/Indicator: TA1535, Metabolic Activation: HAMSTER, LIVER, S-9, AROCLOR 1254 (10%), Method: PREINCUBATION) “inactive; negative”; (Test System: AMES SALMONELLA TYPHIMURIUM, Strain/Indicator: TA1535, Metabolic Activation: HAMSTER, LIVER, S-9, AROCLOR 1254 (30%), Method: PREINCUBATION) “inactive; negative”; (Test System: AMES SALMONELLA TYPHIMURIUM, Strain/Indicator: TA1535, Metabolic Activation: NONE, Method: PREINCUBATION) “inactive; negative”; (Test System: AMES SALMONELLA TYPHIMURIUM, Strain/Indicator: TA1535, Metabolic Activation: RAT, LIVER, S-9, AROCLOR 1254 (10%), Method: PREINCUBATION) “inactive; negative”; (Test System: AMES SALMONELLA TYPHIMURIUM, Strain/Indicator: TA1535, Metabolic Activation: RAT, LIVER, S-9, AROCLOR 1254 (30%), Method: PREINCUBATION) “inactive; negative”.

On to `O=[N+]([O-])c1ccc(Cl)cc1`, for which the mutagenic call was “active; positive (ploidy changes); precipitation occurred at 0.4, 0.5, and 0.6 mg/ml” (End Point: IN VITRO CHROMOSOMAL ABERRATIONS, Test System: CHL CELLS, Metabolic Activation: NONE); “active; positive (structural changes); authors report equivocal results for ploidy chang” (End Point: IN VITRO CHROMOSOMAL ABERRATIONS, Test System: CHL CELLS, Metabolic Activation: RAT, LIVER, S-9, SODIUM PHENOBARBITAL AND 5,6-BENZOFLAVONE); “inactive; negative” (End Point: IN VITRO CHROMOSOMAL ABERRATIONS, Test System: HUMAN PERIPHERAL LYMPHOCYTES, Metabolic Activation: NONE); “inactive; negative” under setting [2]; “inactive; negative” (Test System: AMES SALMONELLA TYPHIMURIUM, Strain/Indicator: TA98, Metabolic Activation: RAT, LIVER, S-9, KANECHLOR 500, Method: PREINCUBATION); “inactive; negative” under setting [3]. Further, the mutagenic call is “inactive; negative” (Test System: Ames Salmonella typhimurium, Strain/Indicator: TA98, Metabolic Activation: None, Method: Preincubation); “inactive; negative” (Test System: Ames Salmonella typhimurium, Strain/Indicator: TA98, Metabolic Activation: Rat, Liver, S9, Sodium phenobarbital and 5,6-benzoflavone (10%), Method: Preincubation); “inactive; negative” (Test System: Ames Salmonella typhimurium, Strain/Indicator: TA98, Metabolic Activation: Rat, Liver, S9, Sodium phenobarbital and 5,6-benzoflavone, Method: Preincubation); “inactive; negative” (Test System: Ames Salmonella typhimurium, Strain/Indicator: TA100, Metabolic Activation: None, Method: Preincubation); “inactive; negative” (Test System: Ames Salmonella typhimurium, Strain/Indicator: TA1535, Metabolic Activation: None, Method: Preincubation); “inactive; negative” (Test System: Ames Salmonella typhimurium, Strain/Indicator: TA1535, Metabolic Activation: Rat, Liver, S9, Sodium phenobarbital and 5,6-benzoflavone (10%), Method: Preincubation). Also, the mutagenic call runs as follows: (Test System: Ames Salmonella typhimurium, Strain/Indicator: TA1537, Metabolic Activation: None, Method: Preincubation) “inactive; negative”; (Test System: Ames Salmonella typhimurium, Strain/Indicator: TA1537, Metabolic Activation: Rat, Liver, S9, Sodium phenobarbital and 5,6-benzoflavone (10%), Method: Preincubation) “inactive; negative”; (Test System: Ames Salmonella typhimurium, Strain/Indicator: TA1537, Metabolic Activation: Rat, Liver, S9, Sodium phenobarbital and 5,6-benzoflavone, Method: Preincubation) “inactive; negative”; (Test System: E. coli, Strain/Indicator: WP2uvrA/PKM101, Metabolic Activation: None, Method: Preincubation) “inactive; negative”; (Test System: E. coli, Strain/Indicator: WP2uvrA/PKM101, Metabolic Activation: Rat, Liver, S9, Sodium phenobarbital and 5,6-benzoflavone (10%), Method: Preincubation) “inactive; negative”; (Test System: E. coli, Strain/Indicator: WP2uvrA/pKM101, Metabolic Activation: None, Method: Preincubation) “inactive; negative”. Further, the mutagenic call (Test System: E. coli, Strain/Indicator: WP2uvrA/pKM101, Metabolic Activation: Rat, Liver, S9, Sodium phenobarbital and 5,6-benzoflavone, Method: Preincubation) is “inactive; negative”.

For `[Cl][Ce]([Cl])[Cl]`, where the note is “Test System: E. COLI, Strain/Indicator: WP2 UVRA, Metabolic Activation: NONE, Method: SPOT TEST”, the mutagenic call was “inactive; negative”.

On to `O=[N+]([O-])c1ccc2cc(O)c3cccc4ccc1c2c43`, for which the mutagenic call was “active; positive” under setting [1] and “active; positive” (Test System: AMES SALMONELLA TYPHIMURIUM, Strain/Indicator: TA98, Metabolic Activation: RAT, LIVER, S-9, AROCLOR 1254, Method: STANDARD PLATE).
